Test [1] has as its target T1, STING AQ: His-TVMV-S-hSTING(155-341)-G230A-R293Q (Homo sapiens, UniProt Q86WV6, G230A/H232R/R293Q).
T1 construct: His-TVMV-S-hSTING(155-341)-G230A-R293Q
As to the kind of experiment: STING HTRF binding assay (time resolved FRET competition), STING AQ. The conditions noted are these: 20 nM His-tagged STING cytoplasmic domain, 40 nM fluorescein-labeled cGAMP analog probe, one hour; read-out: HTRF Binding Assays IC50 STING AQ. The method, boiled down: (§1)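 TR-FRET competition: 20 nM His-tagged STING cytoplasmic domain with 2.5 nM Tb-anti-His and fluorescein-cGAMP analog probe (200 nM for WT, 40 nM for AQ), 1 h in PBS/0.005% Tween-20/0.1% BSA. Background-subtracted 520/495 ratios were converted to % inhibition at 11 concentrations. IC50 came from a 4-parameter logistic fit.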
On the technique in general: TR-FRET usually uses a lanthanide donor and a delayed reading to cut background.

Test [2] has as its target T2, STING WT: His-TVMV-S-hSTING(155-341)-H232R (Homo sapiens, UniProt Q86WV6, H232R).
T2 construct: His-TVMV-S-hSTING(155-341)-H232R
Nature of the test: STING HTRF binding assay (time resolved FRET competition), STING WT. To be noted: 20 nM His-tagged STING cytoplasmic domain, 200 nM fluorescein-labeled cGAMP analog probe, one hour; read-out: HTRF Binding Assays IC50 STING WT. The method, boiled down: as §1

The next test deals with NFkB. Nature of the test: STING THP1 reporter assay, NF-κB pathway (SEAP, QUANTI-Blue). Format: cell-based. To be noted: THP1-Dual cells, 10% human plasma, 100% activation = 100 μM cGAMP. The method, boiled down:
(§2)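 THP1-Dual cells (15,000/well) in RPMI with 10% human plasma were treated with compound dilutions (top final 100 μM) for 20 h at 37° C. Lucia luciferase (QUANTI-Luc, luminescence) or SEAP (QUANTI-Blue, OD620 after 2 h) in supernatant; normalized to DMSO baseline and 100 μM cGAMP as 100%.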
Background: A reporter such as luciferase makes a cellular process visible.

The next test has as its system IRF3. Nature of the test: STING THP1 reporter assay, IRF pathway (secreted luciferase Lucia, QUANTI-Luc). The conditions noted are these: THP1-Dual cells, 10% human plasma, 100% activation = 100 μM cGAMP, luciferase readout, read-out: THP1 Reporter Assays EC50 IRF3. Type of test: cell-based. The procedure, abridged: as §2
Setting [3] is: 20 hours, SEAP readout OD620, read-out: THP1 Reporter Assays EC50 NFkB.
Setting [4] is: Homo sapiens, THP-1, 20 h, SEAP readout OD620, read-out: THP1 Reporter Assays EC50 NFkB.

Like-named read-outs stand apart in the source and are kept apart here.

As a reminder, the IC50 is the concentration at which inhibition is half-maximal. The EC50 is the concentration that produces a half-maximal response.

T1 sequence (Q86WV6 with tags, fused parts or gaps G230A/H232R/R293Q): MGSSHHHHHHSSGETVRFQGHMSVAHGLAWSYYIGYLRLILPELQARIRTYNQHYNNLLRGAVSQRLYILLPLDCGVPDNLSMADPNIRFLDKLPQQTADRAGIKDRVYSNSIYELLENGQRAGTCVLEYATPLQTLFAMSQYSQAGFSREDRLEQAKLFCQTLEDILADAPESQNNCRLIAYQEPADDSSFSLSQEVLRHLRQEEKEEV
T2 sequence (Q86WV6 with tags, fused parts or gaps H232R): as the sequence (Q86WV6 with tags, fused parts or gaps G230A/H232R/R293Q) above, with A99G, Q162R counted along it

On to `Nc1nc2c(ncn2[C@@H]2C[C@@H]3COP(O)(=S)O[C@H]4[C@@H](F)[C@H](n5cnc6c(N)ncnc65)O[C@@H]4COP(O)(=S)OC[C@H]32)c(=O)[nH]1` (single isomer, unassigned) [Example 18-1], for which the IC50 in test [1] turned out to be 2 nM; in test [2] it was 4 nM. Besides, the results for the 50% effective concentration (EC50) in the test with NFkB (setting [3]) and with IRF3 (20 hours) were 2.6 µM and 0.6 µM, respectively.

With `Nc1nc2c(ncn2[C@@H]2C[C@@H]3COP(O)(=S)O[C@H]4[C@@H](F)[C@H](n5cnc6c(N)ncnc65)O[C@@H]4COP(O)(=S)OC[C@H]32)c(=O)[nH]1` (single isomer, unassigned) [Example 18-2], the concentration for half-maximal inhibition (IC50) in test [1] came to 20 nM; in test [2], 150 nM. The EC50 with NFkB (setting [3]) and in the test with IRF3 (20 hours) was > 100 µM in each case.

On to `Nc1nc2c(ncn2[C@@H]2C[C@@H]3COP(O)(=S)O[C@H]4[C@@H](F)[C@H](n5cnc6c(N)ncnc65)O[C@@H]4COP(O)(=S)OC[C@H]32)c(=O)[nH]1` (single isomer, unassigned) [Example 18-3], for which the IC50 stood at 20 nM in test [1] and 520 nM in test [2]. The half-maximal effective concentration (EC50) in the test on NFkB (setting [3]) and in the test with IRF3 (20 hours) was > 100 µM in each case.

Turning to `Nc1nc2c(ncn2[C@@H]2C[C@@H]3COP(O)(=S)O[C@H]4[C@@H](F)[C@H](n5cnc6c(N)ncnc65)O[C@@H]4COP(O)(=S)OC[C@H]32)c(=O)[nH]1` (single isomer, unassigned) [Example 18-4], the values for the half-maximal inhibitory concentration (IC50) in test [1] and in test [2] were 4 nM and 50 nM, respectively. Also, the concentration giving a half-maximal response (EC50) is 74.5 µM with NFkB (setting [3]) and > 100 µM in the test on IRF3 (20 hours).

Take `Nc1ncnc2c1ncn2[C@@H]1C[C@@H]2COP(=O)(O)O[C@H]3[C@@H](F)[C@H](n4cnc5c(N)ncnc54)O[C@@H]3COP(=O)(O)OC[C@H]21` [Example 10, (1R,6S,8R,9R,15R,17R,18R)-8,17-bis(6-amino-9H-purin-9-yl)-18-fluoro-3,12-dihydroxy-2,4,11,13,16-pentaoxa-3λ^5,12λ^5-diphosphatricyclo[13.3.0.0^6,9]octadecane-3,12-dione]: the half-maximal inhibitory concentration (IC50) in test [1] was 40 nM; in test [2], 5200 nM. Besides, the concentration giving a half-maximal response (EC50) is > 100 µM in the test with NFkB (setting [4]) and > 100 µM in the test on IRF3 (Homo sapiens, THP-1, 20 h).

On to `Nc1ncnc2c1ncn2[C@@H]1C[C@@H]2COP(O)(=S)O[C@H]3[C@@H](O)[C@H](n4cnc5c(O)ncnc54)O[C@@H]3COP(O)(=S)OC[C@H]21` (stereo partly drawn) [Example 16, (1S,6S,8R,9R,15R,17R,18R)-8-(6-amino-9H-purin-9-yl)-3,12,18-trihydroxy-17-(6-hydroxy-9H-purin-9-yl)-2,4,11,13,16-pentaoxa-3λ^5,12λ^5-diphosphatricyclo[13.3.0.0^6,9]octadecane-3,12-dithione], for which the IC50 in test [1] came out at 230 nM; in test [2], 17900 nM. For the same molecule, the concentration for a half-maximal effect (EC50) with NFkB (setting [4]) is 31 µM; in the test on IRF3 (Homo sapiens, THP-1, 20 h) it was > 100 µM.

Source of the values: US10744150B2, “Cyclic dinucleotides as anticancer agents” (BRISTOL-MYERS SQUIBB COMPANY, priority 2017, dated 2020).
